Laboratory results from ChEMBL document CHEMBL1201862, “PubChem BioAssay data set” (2004).
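Cells were grown in 96-well plates and exposed to each compound for 48 hours at five concentrations; endpoints were interpolated linearly between bracketing concentrations, or set to the highest concentration if not reached. The concentration for 50% growth inhibition is given as GI50.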 Active and inactive are the calls of the source. Rule as the data show it: active = GI50 up to about 1.1 µM and inactive = higher.

Assays:
Experiment in all cases: NCI-60 cell line screen, 48 h
OVCAR-4 = tested on: OVCAR-4
SNB-75 = tested on: SNB-75
OVCAR-5 = tested on: OVCAR-5
HOP-62 = tested on: HOP-62
Malme-3M = tested on: Malme-3M
NCI/ADR-RES = tested on: NCI/ADR-RES
HOP-92 = tested on: HOP-92
KM12 = tested on: KM12
NCI-H522 = tested on: NCI-H522
SF-539 = tested on: SF-539
RXF 393 = tested on: RXF 393
UO-31 = tested on: UO-31
SNB-19 = tested on: SNB-19
SK-MEL-5 = tested on: SK-MEL-5
HL-60 = tested on: HL-60
RPMI-8226 = tested on: RPMI-8226
SR = tested on: SR
MCF7 = tested on: MCF7
PC-3 = tested on: PC-3
OVCAR-3 = tested on: OVCAR-3
SK-MEL-2 = tested on: SK-MEL-2
SK-OV-3 = tested on: SK-OV-3
A549 = tested on: A549
A498 = tested on: A498
HCT-116 = tested on: HCT-116
HCT-15 = tested on: HCT-15
DU-145 = tested on: DU-145
COLO 205 = tested on: COLO 205
786-0 = tested on: 786-0
MDA-MB-231 = tested on: MDA-MB-231
MDA-MB-435 = tested on: MDA-MB-435
EKVX = tested on: EKVX
NCI-H226 = tested on: NCI-H226
SN12C = tested on: SN12C
Hs-578T = tested on: Hs-578T
BT-549 = tested on: BT-549
UACC-257 = tested on: UACC-257
SF-295 = tested on: SF-295
SF-268 = tested on: SF-268
CCRF-CEM = tested on: CCRF-CEM
HT-29 = tested on: HT-29
OVCAR-8 = tested on: OVCAR-8
NCI-H23 = tested on: NCI-H23
UACC-62 = tested on: UACC-62
IGROV-1 = tested on: IGROV-1
M14 = tested on: M14
U-251 = tested on: U-251
CAKI-1 = tested on: CAKI-1
MOLT-4 = tested on: MOLT-4
HCC 2998 = tested on: HCC 2998
TK-10 = tested on: TK-10
K562 = tested on: K562
ACHN = tested on: ACHN
SW-620 = tested on: SW-620
NCI-H460 = tested on: NCI-H460

## Clc1ccc(CCn2ccc3ccccc32)c(Cl)c1
OVCAR-4
  GI50: > 100 µM (inactive)
SNB-75
  GI50: > 100 µM (inactive)
OVCAR-5
  GI50: > 100 µM (inactive)
HOP-62
  GI50: > 100 µM (inactive)
Malme-3M
  GI50: > 100 µM (inactive)
NCI/ADR-RES
  GI50: > 100 µM (inactive)
HOP-92
  GI50: > 100 µM (inactive)
KM12
  GI50: > 100 µM (inactive)
NCI-H522
  GI50: > 100 µM (inactive)
SF-539
  GI50: > 100 µM (inactive)
RXF 393
  GI50: > 100 µM (inactive)
UO-31
  GI50: > 100 µM (inactive)
SNB-19
  GI50: > 100 µM (inactive)
SK-MEL-5
  GI50: > 100 µM (inactive)
HL-60
  GI50: > 100 µM (inactive)
RPMI-8226
  GI50: > 100 µM (inactive)
SR
  GI50: > 100 µM (inactive)
MCF7
  GI50: > 100 µM (inactive)
PC-3
  GI50: > 100 µM (inactive)
OVCAR-3
  GI50: > 100 µM (inactive)
SK-MEL-2
  GI50: > 100 µM (inactive)
SK-OV-3
  GI50: > 100 µM (inactive)
A549
  GI50: > 100 µM (inactive)
A498
  GI50: > 100 µM (inactive)
HCT-116
  GI50: > 100 µM (inactive)
HCT-15
  GI50: > 100 µM
DU-145
  GI50: > 100 µM (inactive)
COLO 205
  GI50: > 100 µM (inactive)
786-0
  GI50: > 100 µM (inactive)
MDA-MB-231
  GI50: > 100 µM (inactive)
MDA-MB-435
  GI50: > 100 µM (inactive)
EKVX
  GI50: > 100 µM (inactive)
NCI-H226
  GI50: > 100 µM (inactive)
SN12C
  GI50: > 100 µM (inactive)
Hs-578T
  GI50: > 100 µM (inactive)
BT-549
  GI50: > 100 µM (inactive)
UACC-257
  GI50: > 100 µM (inactive)
SF-295
  GI50: > 100 µM (inactive)
SF-268
  GI50: > 100 µM (inactive)
CCRF-CEM
  GI50: > 100 µM (inactive)
HT-29
  GI50: > 100 µM (inactive)
OVCAR-8
  GI50: > 100 µM (inactive)
NCI-H23
  GI50: > 100 µM (inactive)
UACC-62
  GI50: > 100 µM (inactive)
IGROV-1
  GI50: > 100 µM (inactive)
M14
  GI50: > 100 µM (inactive)
U-251
  GI50: > 100 µM (inactive)
CAKI-1
  GI50: > 100 µM (inactive)
MOLT-4
  GI50: > 100 µM (inactive)
HCC 2998
  GI50: > 100 µM (inactive)
TK-10
  GI50: > 100 µM (inactive)
K562
  GI50: > 100 µM (inactive)
ACHN
  GI50: > 100 µM (inactive)
SW-620
  GI50: > 100 µM (inactive)
NCI-H460
  GI50: > 100 µM (inactive)
